In assay [1] the test system is Cd1^87 (RNA, riboswitch) GGAAACUAAAUAGGCAAAUCUAGAGAAAUCUAGUGACGCAAAGCUAUAGGGACUAAGGUUUAUAUACAUAAACUAUGUCAGCCAGUUGC
The experiment in a line: ITC. The settings on record: 120 mM NaCl, 8 mM MgCl2 (RNA wash buffer); 50 mM Bis-Tris pH 6.1; individual ITC conditions in SI Figures S11/S12.

Assay [2] deals with Cd1^88 G11A (RNA, riboswitch) GGAAACUAAAUAAGCAAAUCUAGAGAAAUCUAGUGACGCAAAGCUAUAGGGACUAAGGUUUAUAUACAUAAACUAUGUCAGCCAGUUGCC
The experiment in a line: 1H NMR reporter peaks. The settings on record: 110 mM NaCl, MgCl2 at 40 equiv. over RNA; 50 mM Bis-Tris, 5-10% D2O.

In assay [3] the test system is Cd1^82 (RNA, riboswitch) GGAAACUAAAUAGGCAAAUCUAGAGAAAUCUAGUGACGCAAAGCUAUAGGGACUAAGGUUUAUAUACAUAAACUAUGUCAGCCA
Put plainly: 1H NMR reporter peaks. The conditions noted are these: 110 mM NaCl, MgCl2 at 40 equiv. over RNA; 50 mM Bis-Tris, 5-10% D2O.

Assay [4] concerns Cd1^88 G11C (RNA, riboswitch) GGAAACUAAAUACGCAAAUCUAGAGAAAUCUAGUGACGCAAAGCUAUAGGGACUAAGGUUUAUAUACAUAAACUAUGUCAGCCAGUUGCC
Put plainly: 1H NMR reporter peaks. The settings on record: 110 mM NaCl, MgCl2 at 40 equiv. over RNA; 50 mM Bis-Tris, 5-10% D2O.

Assay [5] has as its system Cd1^88 A24-26U (RNA, riboswitch) GGAAACUAAAUAGGCAAAUCUAGAGUUUUCUAGUGACGCAAAGCUAUAGGGACUAAGGUUUAUAUACAUAAACUAUGUCAGCCAGUUGCC
The experiment in a line: 1H NMR reporter peaks. The conditions noted are these: 110 mM NaCl, MgCl2 at 40 equiv. over RNA; 50 mM Bis-Tris, 5-10% D2O.

The subject of assay [6] is Cd1^149 (RNA, riboswitch) GGAAACUAAAUAGGCAAAUCUAGAGAAAUCUAGUGACGCAAAGCUAUAGGGACUAAGGUUUAUAUACAUAAACUAUGUCAGCCAGUUGCCAAAAAGAGUCCUAGGUGUAUUGUAUACCUAAGAAAAGUCUAUAAUGACUGCCUUUUUGGCA
The experiment in a line: 2D 1H/15N correlation NMR. The settings on record: 110 mM NaCl, MgCl2 at 40 equiv. over RNA; 50 mM Bis-Tris, 5-10% D2O.

Assay [7] concerns Cd1^146 (RNA, riboswitch) GGAAACUAAAUAGGCAAAUCUAGAGAAAUCUAGUGACGCAAAGCUAUAGGGACUAAGGUUUAUAUACAUAAACUAUGUCAGCCAGUUGCCAAAAAGAGUCCUAGGUGUAUUGUAUACCUAAGAAAAGUCUAUAAUGACUGCCUUUUUG
Put plainly: ITC. The settings on record: 120 mM NaCl, 8 mM MgCl2 (RNA wash buffer); 50 mM Bis-Tris pH 6.1; individual ITC conditions in SI Figures S11/S12.

Assay [8] relates to Cd1^147 (RNA, riboswitch) GGAAACUAAAUAGGCAAAUCUAGAGAAAUCUAGUGACGCAAAGCUAUAGGGACUAAGGUUUAUAUACAUAAACUAUGUCAGCCAGUUGCCAAAAAGAGUCCUAGGUGUAUUGUAUACCUAAGAAAAGUCUAUAAUGACUGCCUUUUUGG
Put plainly: 2D 1H/15N correlation NMR. The conditions noted are these: 110 mM NaCl, MgCl2 at 40 equiv. over RNA; 50 mM Bis-Tris, 5-10% D2O.

Assay [9] relates to Cd1^88 C87A (RNA, riboswitch) GGAAACUAAAUAGGCAAAUCUAGAGAAAUCUAGUGACGCAAAGCUAUAGGGACUAAGGUUUAUAUACAUAAACUAUGUCAGCCAGUUGAC
The experiment in a line: 1H NMR reporter peaks. The conditions noted are these: 110 mM NaCl, MgCl2 at 40 equiv. over RNA; 50 mM Bis-Tris, 5-10% D2O.

The test system of assay [10] is Cd1^81 (RNA, riboswitch) GGAAACUAAAUAGGCAAAUCUAGAGAAAUCUAGUGACGCAAAGCUAUAGGGACUAAGGUUUAUAUACAUAAACUAUGUCAGCC
Put plainly: 1H NMR reporter peaks. The conditions noted are these: 110 mM NaCl, MgCl2 at 40 equiv. over RNA; 50 mM Bis-Tris, 5-10% D2O.

Assay [11] has as its system Cd1^88 C88A (RNA, riboswitch) GGAAACUAAAUAGGCAAAUCUAGAGAAAUCUAGUGACGCAAAGCUAUAGGGACUAAGGUUUAUAUACAUAAACUAUGUCAGCCAGUUGCA
The experiment in a line: 1H NMR reporter peaks. The settings on record: 110 mM NaCl, MgCl2 at 40 equiv. over RNA; 50 mM Bis-Tris, 5-10% D2O.

Assay [12] relates to Cd1^83 (RNA, riboswitch) GGAAACUAAAUAGGCAAAUCUAGAGAAAUCUAGUGACGCAAAGCUAUAGGGACUAAGGUUUAUAUACAUAAACUAUGUCAGCCAG
Put plainly: ITC. The settings on record: 120 mM NaCl, 8 mM MgCl2 (RNA wash buffer); 50 mM Bis-Tris pH 6.1; individual ITC conditions in SI Figures S11/S12.

Assay [13] has as its system Cd1^86 (RNA, riboswitch) GGAAACUAAAUAGGCAAAUCUAGAGAAAUCUAGUGACGCAAAGCUAUAGGGACUAAGGUUUAUAUACAUAAACUAUGUCAGCCAGUUG
Put plainly: ITC. The settings on record: 120 mM NaCl, 8 mM MgCl2 (RNA wash buffer); 50 mM Bis-Tris pH 6.1; individual ITC conditions in SI Figures S11/S12.

The subject of assay [14] is Cd1^88 C81A (RNA, riboswitch) GGAAACUAAAUAGGCAAAUCUAGAGAAAUCUAGUGACGCAAAGCUAUAGGGACUAAGGUUUAUAUACAUAAACUAUGUCAGCAAGUUGCC
Put plainly: 1H NMR reporter peaks. The conditions noted are these: 110 mM NaCl, MgCl2 at 40 equiv. over RNA; 50 mM Bis-Tris, 5-10% D2O.

Assay [15] deals with Cd1^135 (RNA, riboswitch) GGAAACUAAAUAGGCAAAUCUAGAGAAAUCUAGUGACGCAAAGCUAUAGGGACUAAGGUUUAUAUACAUAAACUAUGUCAGCCAGUUGCCAAAAAGAGUCCUAGGUGUAUUGUAUACCUAAGAAAAGUCUAUAAUGA
Put plainly: ITC. The settings on record: 120 mM NaCl, 8 mM MgCl2 (RNA wash buffer); 50 mM Bis-Tris pH 6.1; individual ITC conditions in SI Figures S11/S12.

Assay [16] has as its system Cd1^148 (RNA, riboswitch) GGAAACUAAAUAGGCAAAUCUAGAGAAAUCUAGUGACGCAAAGCUAUAGGGACUAAGGUUUAUAUACAUAAACUAUGUCAGCCAGUUGCCAAAAAGAGUCCUAGGUGUAUUGUAUACCUAAGAAAAGUCUAUAAUGACUGCCUUUUUGGC
Put plainly: 2D 1H/15N correlation NMR. The conditions noted are these: 110 mM NaCl, MgCl2 at 40 equiv. over RNA; 50 mM Bis-Tris, 5-10% D2O.

Assay [17] relates to Cd1^80 (RNA, riboswitch) GGAAACUAAAUAGGCAAAUCUAGAGAAAUCUAGUGACGCAAAGCUAUAGGGACUAAGGUUUAUAUACAUAAACUAUGUCAGC
The experiment in a line: 1H NMR reporter peaks. The conditions noted are these: 110 mM NaCl, MgCl2 at 40 equiv. over RNA; 50 mM Bis-Tris, 5-10% D2O.

Assay [18] has as its system Cd1^88 (RNA, riboswitch) GGAAACUAAAUAGGCAAAUCUAGAGAAAUCUAGUGACGCAAAGCUAUAGGGACUAAGGUUUAUAUACAUAAACUAUGUCAGCCAGUUGCC
Put plainly: ITC. The conditions noted are these: 120 mM NaCl, 8 mM MgCl2 (RNA wash buffer); 50 mM Bis-Tris pH 6.1; individual ITC conditions in SI Figures S11/S12.

A value given as a limit tells only on which side of the number the result lay.

Regarding `Nc1nc2c(ncn2[C@@H]2O[C@@H]3COP(=O)(O)O[C@H]4[C@@H](O)[C@H](n5cnc6c(=O)[nH]c(N)nc65)O[C@@H]4COP(=O)(O)O[C@H]3[C@H]2O)c(=O)[nH]1`, the KD was 1900 ± 100 nM in assay [1]; 7000 ± 2000 nM in assay [7]; > >100 μM in assay [12]; 35000 ± 10000 nM in assay [13]; 600 ± 30 nM in assay [15]; 250 ± 40 nM in [18]. Also, the binding entry in assay [2] was “yes”; in assay [3], “no”; in assay [4] it was “yes”; in assay [5] it was “no”; in assay [6] it was “no”; in assay [8], “yes”. Besides, the binding entry in assay [9] is reported as “weak”; in assay [10] it was “no”; in assay [11], “yes”; in [14], “no”; in [16] it was “no”; in [17], “no”.

As usually defined, the KD is the constant that tells how readily two partners part at equilibrium. A low value points to a tighter complex.

These data come from article PMC9262584 (2022).
